From patent US5891877A, “Pharmaceutical compounds” (Xenova Limited, priority 1996, dated 1999) come the findings set out here.

pIC50: −log10 of the molar value. Counter-ions that a name gives are not always drawn.

This experiment addresses PAI-1 (Homo sapiens, UniProt P05121). Description: PAI-1 inhibition in the S2251 chromogenic substrate assay (PAI functional assay). The format is biochemical. The conditions noted are these: for inhibition at 20 µM / inhibition at 50 µM / inhibition at 100 µM: read-out: INHIBITION OF PAI-1 (degree of inhibition); for INHIBITION OF PAI-1 (degree of inhibition): unit assumed; for pIC50: PAI-1, S2251 assay. The method, then: In this assay, a compound is incubated with PAI-1 prior to addition to the tPA assay system. Inhibition of PAI-1 results in the production of plasmin from plasminogen. […]
Compounds of formula (A) were tested in a PAI chromogenic substrate assay. […] In turn, the plasmin cleaved the chromogenic substrate S2251 (Kabi-Vitrum) producing pNA (p-nitroaniline) which was detected scectrophotometrically at 405 nm.

Chain of PAI-1 (P05121 24-402): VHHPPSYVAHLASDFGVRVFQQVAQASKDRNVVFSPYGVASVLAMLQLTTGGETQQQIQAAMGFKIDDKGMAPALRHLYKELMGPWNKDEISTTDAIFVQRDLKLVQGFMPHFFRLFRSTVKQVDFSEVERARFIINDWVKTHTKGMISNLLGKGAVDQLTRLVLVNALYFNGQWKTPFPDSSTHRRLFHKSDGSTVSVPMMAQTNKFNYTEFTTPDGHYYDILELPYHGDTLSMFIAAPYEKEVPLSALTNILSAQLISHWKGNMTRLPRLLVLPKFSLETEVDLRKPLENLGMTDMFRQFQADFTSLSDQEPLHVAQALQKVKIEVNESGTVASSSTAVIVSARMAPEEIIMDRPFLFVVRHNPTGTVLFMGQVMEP

As for `CN(C)CCOCc1ccc(/C=c2\[nH]c(=O)/c(=C/c3ccoc3)[nH]c2=O)cc1` [Compound 5077, (3Z,6Z)-6-(4-(2-Dimethylaminoethoxymethyl)benzylidene)-3-(3-furylmethylene)-2,5-piperazinedione], the inhibition (usually the percentage by which the read-out fell short of the control) at 20 µM (20 μM, Table 1, second part) stood at 42%. The inhibition at 50 µM (Table 1, second part) was 46%. Besides, where the note is “100 μM, Table 1, second part”, the inhibition at 100 µM worked out at 34%.

As to `CN(C)CC(O)COc1ccc(/C=c2\[nH]c(=O)/c(=C/c3ccccc3)[nH]c2=O)cc1` (stereo not shown) [Compound 5032, (3Z,6Z)-6-Benzylidene-3-(4-(3-dimethylamino-2-hydroxypropoxy)benzylidene)-2,5-piperazinedione], for the setting “20 μM, Table 1, second part”, the inhibition at 20 µM turned out to be 63%. Besides, under “Table 1, second part”, the inhibition at 50 µM was found to be 62%. Besides, the inhibition at 100 µM (100 μM, Table 1, second part) turned out to be 65%.

As to `O=c1[nH]/c(=C\c2c[nH]cn2)c(=O)[nH]/c1=C\c1ccccc1` [Compound 1926, (3Z,6Z)-3-Benzylidene-6-(4-imidazolyl)methylene-2,5-piperazinedione], the INHIBITION OF PAI-1 (degree of inhibition) by setting is: (6.25 μm, Table 1, first part) 10%; (12.5 μm, Table 1, first part) 6%; (25 μm, Table 1, first part) 12%; (50 μm, Table 1, first part) 35%; (100 μm, Table 1, first part) 36%.

On to `O=C(NCCCCN1CCc2ccccc2C1)c1ccc(/C=c2\[nH]c(=O)/c(=C/c3ccccc3)[nH]c2=O)cc1` [Compound 5371, N-(4-(1,2,3,4-Tetrahydro-2-isoquinolyl)butyl)-4-((3Z,6Z)-6-benzylidene-2,5-dioxo-3-piperazinylidene)methylbenzamide], for which the pIC50 (usually −log10 of the IC50, conventionally taken in molar units) (Table 1, second part) was 4.92.

With `CN(C)CCCCCCOc1ccc(/C=c2\[nH]c(=O)/c(=C/c3ccccc3)[nH]c2=O)s1` [Compound 5389.HCl], the INHIBITION OF PAI-1 (degree of inhibition) (20 μM, Table 1, second part) was 57%.

Where the note is “20 μM, Table 1, second part”, `O=C(NCCCN1CCc2ccccc2C1)c1ccc(/C=c2\[nH]c(=O)/c(=C/c3ccccc3)[nH]c2=O)cc1` [Compound 5394.HCl] yielded an INHIBITION OF PAI-1 (degree of inhibition) of 62%. Where the note is “Table 1, second part”, this compound gave a negative-log IC50 (pIC50) of 4.77.

For `CN(C)CCCOc1ccc(/C=c2\[nH]c(=O)/c(=C/c3cccc4ccccc34)[nH]c2=O)cc1` [Compound 5200, (3Z,6Z)-6-(4-(3-Dimethylaminopropoxy)benzylidene)-3-(1-Naphthylmethylene)-2,5-piperazinedione], the INHIBITION OF PAI-1 (degree of inhibition) is 10% (20 μM, Table 1, second part) and 10% (100 μM, Table 1, second part).

Consider `CN(C)c1ccc(C=C/C=c2\[nH]c(=O)/c(=C/c3ccccc3)[nH]c2=O)cc1` [Compound 1921, (3Z,6Z)-3-Benzylidene-6-(4-dimethylaminocinnamylidene)-2,5-piperazinedione], for which the INHIBITION OF PAI-1 (degree of inhibition) (6.25 μm, Table 1, first part) turned out to be 16%; the INHIBITION OF PAI-1 (degree of inhibition) (12.5 μm, Table 1, first part) was 14%; the INHIBITION OF PAI-1 (degree of inhibition) (25 μm, Table 1, first part) is 25%; the INHIBITION OF PAI-1 (degree of inhibition) (50 μm, Table 1, first part) was 43%; the INHIBITION OF PAI-1 (degree of inhibition) (100 μm, Table 1, first part) is 65%.

Consider `COc1cc2c(cc1OC)CN(CCc1ccc(NC(=O)c3ccc(/C=c4\[nH]c(=O)/c(=C/c5ccccc5)[nH]c4=O)cc3)cc1)CC2` [Compound 5393.HCl], for which, under “20 μM, Table 1, second part”, the INHIBITION OF PAI-1 (degree of inhibition) is 58%. The negative logarithm of the IC50 (pIC50) (Table 1, second part) was 4.70.

As to `COc1ccc(/C=c2\[nH]c(=O)/c(=C/c3cc4ccccc4[nH]3)[nH]c2=O)cc1` [Compound 1718, (3Z,6Z)-3-(2-Indolylmethylene)-6-(4-methoxybenzylidene)-2,5-piperazinedione], the INHIBITION OF PAI-1 (degree of inhibition) is, setting by setting: (6.25 μm, Table 1, first part) 1%; (12.5 μm, Table 1, first part) 0%; (25 μm, Table 1, first part) 0%; (50 μm, Table 1, first part) 1%; (100 μm, Table 1, first part) 62%. The same compound had a pIC50 (Table 2) of 4.00 to 4.30.

Regarding `COc1ccc(/C=c2\[nH]c(=O)/c(=C/c3ccc(OC(=O)CN4C(=O)c5ccccc5C4=O)cc3)[nH]c2=O)cc1` [Compound 1886, (3Z,6Z)-3-(4-Methoxybenzylidene)-6-(4-phthalimidoacetoxybenzylidene)-2,5-piperazinedione], the INHIBITION OF PAI-1 (degree of inhibition) worked out at 0% (6.25 μm, Table 1, first part); 6% (12.5 μm, Table 1, first part); 18% (25 μm, Table 1, first part); 40% (50 μm, Table 1, first part); 42% (100 μm, Table 1, first part).

On to `CN(C)CCOc1ccc(/C=c2\[nH]c(=O)/c(=C/c3ccsc3)[nH]c2=O)cc1` [Compound 5071, (3Z,6Z)-6-(4-(2-Dimethylaminoethoxy)benzylidene)-3-(3-thenylidene)-2,5-piperazinedione], for which, where the note is “20 μM, Table 1, second part”, the inhibition at 20 µM was found to be 73%. Moreover, where the note is “Table 1, second part”, the inhibition at 50 µM worked out at 82%. Moreover, the inhibition at 100 µM (100 μM, Table 1, second part) came to 80%.

With `O=c1[nH]/c(=C\c2ccc(OCC(O)CN3CCOCC3)cc2)c(=O)[nH]/c1=C\c1ccccc1` (stereo not shown) [Compound 5040, (3Z,6Z)-6-Benzylidene-3-(4-(2-hydroxy-3-morpholinopropoxy)benzylidene)-2,5-piperazinedione], the inhibition at 20 µM (20 μM, Table 1, second part) was 0%. For the same compound, the inhibition at 50 µM (Table 1, second part) was 1%. For the same compound, the inhibition at 100 µM (100 μM, Table 1, second part) was 0%.

In turn, `O=c1[nH]/c(=C\c2ccc(-n3ccnc3)cc2)c(=O)[nH]/c1=C\c1ccccc1` [Compound 1930] displayed an INHIBITION OF PAI-1 (degree of inhibition) (6.25 μm, Table 1, first part) of 30%; an INHIBITION OF PAI-1 (degree of inhibition) (12.5 μm, Table 1, first part) of 38%; an INHIBITION OF PAI-1 (degree of inhibition) (25 μm, Table 1, first part) of 79%; an INHIBITION OF PAI-1 (degree of inhibition) (50 μm, Table 1, first part) of 61%; an INHIBITION OF PAI-1 (degree of inhibition) (100 μm, Table 1, first part) of 54%.

On to `CCOC(OCC)c1ccc(/C=c2\[nH]c(=O)/c(=C/c3ccccc3)[nH]c2=O)cc1` [Compound 1891], for which the INHIBITION OF PAI-1 (degree of inhibition) by setting is: (6.25 μm, Table 1, first part) 3%; (12.5 μm, Table 1, first part) 3%; (25 μm, Table 1, first part) 17%; (50 μm, Table 1, first part) 36%; (100 μm, Table 1, first part) 28%.

As for `CN(C)CCc1ccc(/C=c2\[nH]c(=O)/c(=C/c3ccccc3)[nH]c2=O)s1` [Compound 5335, (3Z,6Z)-6-Benzylidene-3-(5-(2-dimethylaminoethyl)-2-thienylmethylene)-2,5-piperazinedione], the pIC50 (Table 1, second part) was 4.66.

Under “20 μM, Table 1, second part”, `O=C(NCCN1CCc2ccccc2C1)c1ccc(/C=c2\[nH]c(=O)/c(=C/c3ccccc3)[nH]c2=O)cc1` [Compound 5391.HCl] had an INHIBITION OF PAI-1 (degree of inhibition) of 100%. The same compound had a pIC50 (Table 1, second part) of 5.46.

Regarding `CN(C)CC(=O)NCc1ccc(/C=c2\[nH]c(=O)/c(=C/c3ccoc3)[nH]c2=O)cc1` [Compound 5081, (3Z,6Z)-6-(4-Dimethylaminoacetamidomethylbenzylidene)-3-(3-furylmethylene)-2,5-piperazinedione], the inhibition at 20 µM (20 μM, Table 1, second part) was 50%. Moreover, for the setting “Table 1, second part”, the inhibition at 50 µM was 34%. The inhibition at 100 µM (100 μM, Table 1, second part) is 25%.

As to `O=C(NCCCN1CCc2ccccc2C1)c1ccc(/C=c2\[nH]c(=O)/c(=C/c3ccccc3)[nH]c2=O)cc1` [Compound 5394, N-(3-(1,2,3,4-Tetrahydro-2-isoquinolyl)propyl)-4-((3Z,6Z)-6-benzylidene-2,5-dioxo-3-piperazinylidene)methylbenzamide], the inhibition at 20 µM (20 μM, Table 1, second part) came out at 59%. Besides, the pIC50 (Table 1, second part) is 4.80.

Turning to `O=c1[nH]/c(=C\c2ccc(OCC(O)CN3CCN(CCO)CC3)cc2)c(=O)[nH]/c1=C\c1ccccc1` (stereo not shown) [Compound 5043, (3Z,6Z)-6-Benzylidene-3-(4-(2-hydroxy-3-(4-(2-hydroxyethyl)-1-piperazinyl)propoxy)benzylidene)-2,5-piperazinedione], the inhibition at 20 µM (20 μM, Table 1, second part) turned out to be 1%. The inhibition at 50 µM (Table 1, second part) worked out at 15%. Also, the inhibition at 100 µM (100 μM, Table 1, second part) was 21%.

Consider `CN(C)CCCOc1ccc(/C=c2\[nH]c(=O)/c(=C/c3ccc(CN(C)C)cc3)[nH]c2=O)cc1` [Compound 5023], for which, under “20 μM, Table 1, second part”, the inhibition at 20 µM was determined as 1%.

In the case of `COc1ccc(/C=c2\[nH]c(=O)/c(=C/c3cccs3)[nH]c2=O)cc1` [Compound 1474, (3Z,6Z)-3-(4-Methoxybenzylidene)-6-(2-thienylmethylene)-2,5-piperazinedione], the INHIBITION OF PAI-1 (degree of inhibition) by setting is: (25 μm, Table 1, first part) 28%; (50 μm, Table 1, first part) 52%; (100 μm, Table 1, first part) 64%. The compound also had a pIC50 (Table 2) of 4.30 to 4.60.

Regarding `COc1ccc(/C=c2\[nH]c(=O)/c(=C/c3ccc4c(c3)OCO4)[nH]c2=O)cc1` [Compound 1809, (3Z,6Z)-3-(4-Methoxybenzylidene)-6-(3,4-methylenedioxybenzylidene)-2,5-piperazinedione], the INHIBITION OF PAI-1 (degree of inhibition) came to 1% (6.25 μm, Table 1, first part); 7% (12.5 μm, Table 1, first part); 84% (25 μm, Table 1, first part); 76% (50 μm, Table 1, first part); 81% (100 μm, Table 1, first part).

Regarding `CN(C)CCCOc1ccc(/C=c2\[nH]c(=O)/c(=C/c3cccc4ccccc34)[nH]c2=O)cc1` [Compound 5205], the INHIBITION OF PAI-1 (degree of inhibition) by setting is: (20 μM, Table 1, second part) 33%; (100 μM, Table 1, second part) 56%. This compound showed a negative logarithm of the IC50 (pIC50) (Table 1, second part) of 4.00.

As to `CN(C)CCCOc1ccc(/C=c2\[nH]c(=O)/c(=C/c3ccncc3)[nH]c2=O)cc1` [Compound 5027], the inhibition at 20 µM (20 μM, Table 1, second part) came to 8%. Also, for the setting “Table 1, second part”, the inhibition at 50 µM is 8%. Moreover, for the setting “100 μM, Table 1, second part”, the inhibition at 100 µM came out at 12%.

For `CN(C)CCCOc1ccc(/C=c2\[nH]c(=O)/c(=C/c3ccc(C(=O)N4CCc5ccccc5C4)cc3)[nH]c2=O)cc1` [Compound 5367], the pIC50 (Table 1, second part) is 4.74.
